The test system of one assay is fibrocystin (FPC). As to the kind of experiment: FPC expression in WT and Pkhd1del4/del4 cholangiocytes. The assay is classed as cell-based, mice. To be noted: Pkhd1^del4/del4 cholangiocytes. Here is the method: FIG. 1A and FIG. 1B show the expression of fibrocystin (FPC) in normal and reduced levels in Pkhd1^del4/del4 cholangiocytes. The residual level of FPC is expected in Pkhd1^del4/del4 cholangiocytes. Garcia-Gonzalez et al., 2007. VX-809 increases FPC. Columns represent the means±SEM of the FPC expression. The data were analyzed by non-parametric t-test. The experiment was repeated 3-4 times; P<0.05;
(Methods and cells provided by the Yale O'Brian Center) To create the cholangiocyte cultures PKhd1del/4/del4, Garcia-Gonzalez et al., 2007, animals were crossed with mice transgenic for the Sv40 large T Antigen (strain name SV40 T-antigen JAX strain #002233). Segments of intrahepatic bile ducts were microdissected from livers perfused via the portal vein with molten agarose containing toluidine blue to mark the veins. The liver parenchyma was stripped until the biliary tree was identified and the bile duct units were seeded onto rat type I collagen coated plates. Cells were cultured under non-permissive conditions in the following medium: DMEM/F12 with 5% fetal bovine serum, 10 μL/mL insulin-transferrin selenium, 3.4 μg/mL triiodothyronine, 50,000 U penicillin/streptomycin under humidified conditions at 37° C. in 5% CO2. After one week, the cells were cultured under permissive conditions in the presence of 10 U of interferon-γ at 33° C. in 5% CO2. […]

Another assay concerns Pkhd1^del3-4/del3-4 mice. As to the kind of experiment: Ki67 proliferation in bile duct epithelia of Pkhd1^del3-4/del3-4 mice. The assay is classed as in vivo. To be noted: 30 mg/kg every other day for 30 days. The text has this: FIG. 12A and FIG. 12B show Ki67 expression in WT and Pkhd1^del3-4/del3-4 mice bile duct epithelia. […] Merged red and green channels are shown, wherein yellow indicates colocalization; the white square indicates the area of enlargement shown. FIG. 12B summarizes the Pearson's Correlation coefficient R for the images of FIG. 12A. The graph compares the percentage of cells positive for Ki67. Number of cells analyzed for WT, n=196, Pkhd1^del3-4/del3-4, n=324, Pkhd1^del3-4/del3-4+VX-809, n=344 Samples were incubated with 5 μg/ml primary antibody Ki67 (Abcam #ab15580) and CK19 (Invitrogen #MA5-15884) in blocking buffer for 16 hours at 4° C. Goat anti-rabbit Alexa Fluor 594 and anti-mouse Alexa Flour 488 conjugated secondary antibodies were used at a 1/250 dilution for 1 hour to label the proteins. Scale bar is 10 μm. Bars represent the means±SEM. […]
Experiments were conducted during the development of embodiments of the technology described herein to test if CFTR correctors affect proliferation of cholangiocytes. In these experiments, proliferation in the livers of Pkhd1^del3-4/del3-4 cholangiocytes in bile duct epithelia was measured using confocal microscopy and the proliferation marker Ki67. […]

The test system of a further assay is CK7. As to the kind of experiment: CK7 expression in cholangiocytes. The assay is classed as cell-based, mice. To be noted: Pkhd1^del4/del4 cells. An excerpt:
(Methods and cells provided by the Yale O'Brian Center) To create the cholangiocyte cultures PKhd1del/4/del4, Garcia-Gonzalez et al., 2007, animals were crossed with mice transgenic for the Sv40 large T Antigen (strain name SV40 T-antigen JAX strain #002233). Segments of intrahepatic bile ducts were microdissected from livers perfused via the portal vein with molten agarose containing toluidine blue to mark the veins. The liver parenchyma was stripped until the biliary tree was identified and the bile duct units were seeded onto rat type I collagen coated plates. Cells were cultured under non-permissive conditions in the following medium: DMEM/F12 with 5% fetal bovine serum, 10 μL/mL insulin-transferrin selenium, 3.4 μg/mL triiodothyronine, 50,000 U penicillin/streptomycin under humidified conditions at 37° C. in 5% CO2. After one week, the cells were cultured under permissive conditions in the presence of 10 U of interferon-γ at 33° C. in 5% CO2. When confluent, cells were passaged by digesting the collagen slab below the cells (60 min; 37° C.; DMEM/F12 with 2 mg/mL dispase and 1 mg/mL collagenase type 11), then washed twice in PBS and plated onto collagen coated support systems. Clonal cell lines were generated by single cell isolation. Cells were differentiated for 10 days at 37° C. without interferon-γ for experimental use.

“Also recorded” adds a separate entry of the source.

Turning to lumacaftor [VX-809], the FPC expression entry in the assay on fibrocystin (FPC) is “increases FPC and CFTR protein levels”. In the assay on Pkhd1^del3-4/del3-4 mice, the “Ki67 colocalization with CK19 in cholangiocytes (proliferation), Pearson's Correlation coefficient R” value is on record as “reduced proliferation; also recorded: reduces colocalization” and the “percent cells positive for Ki67” value is reported as “levels were reduced”. For the same substance, the CK7 expression entry in the assay on CK7 is listed as “increased”.

Values taken from patent US20220331301A1, “CYSTIC FIBROSIS TRANSMEMBRANE CONDUCTANCE REGULATOR MODULATORS FOR TREATING AUTOSOMAL RESESSIVE POLYCYSTIC KIDNEY DISEASE” (The Johns Hopkins University, priority 2021, published 2022).
